According to US9302999B2, “Substituted triazoles as herbicides” (E. I. DU PONT DE NEMOURS AND COMPANY, priority 2012, dated 2016):

Columns and labels:
Assay type in all cases: in vivo
corn (Zea mays) = assay: Test A pre-/postemergence: corn
Outline: (§1)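 Each species received preemergence soil-directed spraying and, at the same time, postemergence treatment of seedlings 2–10 cm tall. Formulation: non-phytotoxic solvent mixture including surfactant. Response assessed visually about ten days on, relative to untreated controls, 0–100 scale.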

[1] = test system: morningglory (Ipomoea spp.); assay: Test A pre-/postemergence: morningglory; settings: for Morningglory plant response rating: visual rating on 0 to 100 scale (0 no effect, 100 complete control), approximately ten days
Outline: as §1

[2] = test system: barnyardgrass (Echinochloa crus-galli); assay: Test A pre-/postemergence: barnyardgrass
Outline: as §1

[3] = test system: barnyardgrass (Echinochloa crus-galli); assay: Test B flooded paddy: barnyardgrass; settings: Flood, applied to paddy water at 2-leaf stage, visually evaluated after 13 to 15 days
Outline: (§2)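 Two-leaf-stage plants, pots flooded (3 cm above soil) and treated through the water, which stayed at that depth. After 13–15 days in greenhouse conditions, visual assessment versus controls: 0 is no effect, 100 complete control, dash means no result.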

rice (Oryza sativa) = assay: Test B flooded paddy: rice; settings: Flood, applied to paddy water at 2-leaf stage, visually evaluated after 13 to 15 days
Outline: as §2

[4] = test system: pigweed (Amaranthus retroflexus); assay: Test A pre-/postemergence: pigweed; settings: for Pigweed plant response rating: visual rating on 0 to 100 scale (0 no effect, 100 complete control), approximately ten days
Outline: as §1

[5] = test system: wheat (Triticum aestivum); assay: Test A pre-/postemergence: wheat; settings: for Wheat plant response rating: visual rating on 0 to 100 scale (0 no effect, 100 complete control), approximately ten days
Outline: as §1

[6] = test system: sedge, umbrella (small-flower umbrella sedge Cyperus difformis); assay: Test B flooded paddy: sedge, umbrella; settings: Flood, applied to paddy water at 2-leaf stage, visually evaluated after 13 to 15 days
Outline: as §2

[7] = test system: velvetleaf (Abutilon theophrasti); assay: Test A pre-/postemergence: velvetleaf; settings: for Velvetleaf plant response rating: visual rating on 0 to 100 scale (0 no effect, 100 complete control), approximately ten days
Outline: as §1

[8] = test system: ducksalad (Heteranthera limosa); assay: Test B flooded paddy: ducksalad; settings: Flood, applied to paddy water at 2-leaf stage, visually evaluated after 13 to 15 days
Outline: as §2

[9] = test system: crabgrass, large (large crabgrass, Digitaria sanguinalis); assay: Test A pre-/postemergence: crabgrass, large
Outline: as §1

[10] = test system: foxtail, giant (giant foxtail, Setaria faberii); assay: Test A pre-/postemergence: foxtail, giant
Outline: as §1

[11] = Postemergence, 125 g ai/ha, 0 to 100 scale, 0 is no effect, 100 is complete control
[12] = Postemergence, 500 g ai/ha, visual rating on 0 to 100 scale (0 no effect, 100 complete control), approximately ten days
[13] = Preemergence, 125 g ai/ha, 0 to 100 scale where 0 is no effect and 100 is complete control
[14] = Preemergence, 500 g ai/ha, 0 to 100 scale (0 no effect, 100 complete control)
[15] = Postemergence, 1000 g ai/ha, visual rating on 0 to 100 scale (0 no effect, 100 complete control), approximately ten days
[16] = Preemergence, 1000 g ai/ha, 0 to 100 scale, 0 is no effect, 100 is complete control

Cc1cc(Oc2nn(-c3ccc(F)cc3)nc2C)ccn1 [Compound 135]
Corn plant response rating (corn (Zea mays); [11]): 10
Corn plant response rating (corn (Zea mays); [12]): 20
Plant response rating, Corn (corn (Zea mays); [13]): 0
Plant response rating, Corn (corn (Zea mays); [14]): 0
Plant response rating, Morningglory [1, 11]: 0
Morningglory plant response rating ([1]; Postemergence, 500 g ai/ha): 10
Plant response rating, Morningglory [1, 13]: 0
Plant response rating, Morningglory [1, 14]: 0
Barnyardgrass plant response rating [2, 11]: 0
Barnyardgrass plant response rating [2, 12]: 10
Plant response rating, Barnyardgrass [2, 13]: 0
Plant response rating, Barnyardgrass [2, 14]: 0
Plant response rating, Barnyardgrass (0 to 100 scale, 0 is no effect, 100 is complete control) ([3]; 250 g ai/ha): 0
Plant response rating, Rice (0 to 100 scale, 0 is no effect, 100 is complete control) (rice (Oryza sativa); 250 g ai/ha): 0
Plant response rating, Pigweed [4, 11]: 20
Pigweed plant response rating ([4]; Postemergence, 500 g ai/ha): 50
Plant response rating, Pigweed [4, 13]: 0
Plant response rating, Pigweed [4, 14]: 0
Plant response rating, Wheat [5, 11]: 0
Wheat plant response rating ([5]; Postemergence, 500 g ai/ha): 0
Plant response rating, Wheat [5, 13]: 0
Plant response rating, Wheat [5, 14]: 0
Plant response rating, Sedge, Umbrella (0 to 100 scale, 0 is no effect, 100 is complete control) ([6]; 250 g ai/ha): 0
Plant response rating, Velvetleaf [7, 11]: 10
Velvetleaf plant response rating ([7]; Postemergence, 500 g ai/ha): 30
Plant response rating, Velvetleaf [7, 13]: 0
Plant response rating, Velvetleaf [7, 14]: 0
Plant response rating, Ducksalad (0 to 100 scale, 0 is no effect, 100 is complete control) ([8]; 250 g ai/ha): 0
Crabgrass, Large plant response rating [9, 11]: 10
Crabgrass, Large plant response rating [9, 12]: 20
Plant response rating, Crabgrass, Large [9, 13]: 0
Plant response rating, Crabgrass, Large [9, 14]: 0
Foxtail, Giant plant response rating [10, 11]: 0
Foxtail, Giant plant response rating [10, 12]: 10
Plant response rating, Foxtail, Giant [10, 13]: 0
Plant response rating, Foxtail, Giant [10, 14]: 0

Cc1nn(-c2ccc(F)c(F)c2)nc1Cc1ccnc(C(F)F)c1 [Compound 136]
Corn plant response rating (corn (Zea mays); [11]): 20
Corn plant response rating (corn (Zea mays); [12]): 40
Plant response rating, Corn (corn (Zea mays); [13]): 0
Plant response rating, Corn (corn (Zea mays); [14]): 10
Plant response rating, Morningglory [1, 11]: 70
Morningglory plant response rating ([1]; Postemergence, 500 g ai/ha): 100
Plant response rating, Morningglory [1, 13]: 20
Plant response rating, Morningglory [1, 14]: 60
Barnyardgrass plant response rating [2, 11]: 60
Barnyardgrass plant response rating [2, 12]: 90
Plant response rating, Barnyardgrass [2, 13]: 70
Plant response rating, Barnyardgrass [2, 14]: 100
Plant response rating, Barnyardgrass (0 to 100 scale, 0 is no effect, 100 is complete control) ([3]; 250 g ai/ha): 45
Plant response rating, Rice (0 to 100 scale, 0 is no effect, 100 is complete control) (rice (Oryza sativa); 250 g ai/ha): 35
Plant response rating, Pigweed [4, 11]: 100
Pigweed plant response rating ([4]; Postemergence, 500 g ai/ha): 100
Plant response rating, Pigweed [4, 13]: 90
Plant response rating, Pigweed [4, 14]: 90
Plant response rating, Wheat [5, 11]: 30
Wheat plant response rating ([5]; Postemergence, 500 g ai/ha): 30
Plant response rating, Wheat [5, 13]: 0
Plant response rating, Wheat [5, 14]: 10
Plant response rating, Sedge, Umbrella (0 to 100 scale, 0 is no effect, 100 is complete control) ([6]; 250 g ai/ha): 85
Plant response rating, Velvetleaf [7, 11]: 90
Velvetleaf plant response rating ([7]; Postemergence, 500 g ai/ha): 100
Plant response rating, Velvetleaf [7, 13]: 30
Plant response rating, Velvetleaf [7, 14]: 60
Plant response rating, Ducksalad (0 to 100 scale, 0 is no effect, 100 is complete control) ([8]; 250 g ai/ha): 75
Crabgrass, Large plant response rating [9, 11]: 60
Crabgrass, Large plant response rating [9, 12]: 90
Plant response rating, Crabgrass, Large [9, 13]: 80
Plant response rating, Crabgrass, Large [9, 14]: 100
Foxtail, Giant plant response rating [10, 11]: 90
Foxtail, Giant plant response rating [10, 12]: 90
Plant response rating, Foxtail, Giant [10, 13]: 100
Plant response rating, Foxtail, Giant [10, 14]: 100

CON=C(c1cccc(C(F)(F)F)c1)c1nn(-c2ccnc(C(F)(F)F)c2)nc1C [Compound 140]
Corn plant response rating (corn (Zea mays); [11]): 20
Corn plant response rating (corn (Zea mays); [12]): 30
Plant response rating, Corn (corn (Zea mays); [13]): 0
Plant response rating, Corn (corn (Zea mays); [14]): 0
Plant response rating, Morningglory [1, 11]: 50
Morningglory plant response rating ([1]; Postemergence, 500 g ai/ha): 90
Plant response rating, Morningglory [1, 13]: 0
Plant response rating, Morningglory [1, 14]: 0
Barnyardgrass plant response rating [2, 11]: 10
Barnyardgrass plant response rating [2, 12]: 30
Plant response rating, Barnyardgrass [2, 13]: 0
Plant response rating, Barnyardgrass [2, 14]: 30
Plant response rating, Barnyardgrass (0 to 100 scale, 0 is no effect, 100 is complete control) ([3]; 250 g ai/ha): 30
Plant response rating, Rice (0 to 100 scale, 0 is no effect, 100 is complete control) (rice (Oryza sativa); 250 g ai/ha): 0
Plant response rating, Pigweed [4, 11]: 100
Pigweed plant response rating ([4]; Postemergence, 500 g ai/ha): 100
Plant response rating, Pigweed [4, 13]: 30
Plant response rating, Pigweed [4, 14]: 80
Plant response rating, Wheat [5, 11]: 10
Wheat plant response rating ([5]; Postemergence, 500 g ai/ha): 20
Plant response rating, Wheat [5, 13]: 0
Plant response rating, Wheat [5, 14]: 0
Plant response rating, Sedge, Umbrella (0 to 100 scale, 0 is no effect, 100 is complete control) ([6]; 250 g ai/ha): 0
Plant response rating, Velvetleaf [7, 11]: 20
Velvetleaf plant response rating ([7]; Postemergence, 500 g ai/ha): 70
Plant response rating, Velvetleaf [7, 13]: 20
Plant response rating, Velvetleaf [7, 14]: 30
Plant response rating, Ducksalad (0 to 100 scale, 0 is no effect, 100 is complete control) ([8]; 250 g ai/ha): 0
Crabgrass, Large plant response rating [9, 11]: 20
Crabgrass, Large plant response rating [9, 12]: 50
Plant response rating, Crabgrass, Large [9, 13]: 20
Plant response rating, Crabgrass, Large [9, 14]: 50
Foxtail, Giant plant response rating [10, 11]: 20
Foxtail, Giant plant response rating [10, 12]: 50
Plant response rating, Foxtail, Giant [10, 13]: 20
Plant response rating, Foxtail, Giant [10, 14]: 70

Cc1nn(-c2ccc(F)cc2)nc1Cc1cccc(C(F)(F)F)c1 [Compound 157]
Plant response rating, Corn (corn (Zea mays); [11]): 20
Corn plant response rating (corn (Zea mays); [12]): 40
Plant response rating, Corn (corn (Zea mays); [13]): 0
Plant response rating, Corn (corn (Zea mays); [14]): 0
Plant response rating, Morningglory [1, 11]: 60
Morningglory plant response rating ([1]; Postemergence, 500 g ai/ha): 80
Plant response rating, Morningglory [1, 13]: 0
Plant response rating, Morningglory [1, 14]: 0
Plant response rating, Barnyardgrass [2, 11]: 20
Barnyardgrass plant response rating [2, 12]: 70
Plant response rating, Barnyardgrass [2, 13]: 20
Plant response rating, Barnyardgrass [2, 14]: 100
Plant response rating, Barnyardgrass (0 to 100 scale, 0 is no effect, 100 is complete control) ([3]; 250 g ai/ha): 0
Plant response rating, Rice (0 to 100 scale, 0 is no effect, 100 is complete control) (rice (Oryza sativa); 250 g ai/ha): 0
Plant response rating, Pigweed [4, 11]: 100
Pigweed plant response rating ([4]; Postemergence, 500 g ai/ha): 100
Plant response rating, Pigweed [4, 13]: 80
Plant response rating, Pigweed [4, 14]: 100
Plant response rating, Wheat [5, 11]: 0
Wheat plant response rating ([5]; Postemergence, 500 g ai/ha): 20
Plant response rating, Wheat [5, 13]: 0
Plant response rating, Wheat [5, 14]: 0
Plant response rating, Sedge, Umbrella (0 to 100 scale, 0 is no effect, 100 is complete control) ([6]; 250 g ai/ha): 40
Plant response rating, Velvetleaf [7, 11]: 40
Plant response rating, Velvetleaf [7, 13]: 0
Plant response rating, Velvetleaf [7, 14]: 0
Plant response rating, Ducksalad (0 to 100 scale, 0 is no effect, 100 is complete control) ([8]; 250 g ai/ha): 20
Plant response rating, Crabgrass, Large [9, 11]: 40
Crabgrass, Large plant response rating [9, 12]: 80
Plant response rating, Crabgrass, Large [9, 13]: 20
Plant response rating, Crabgrass, Large [9, 14]: 90
Plant response rating, Foxtail, Giant [10, 11]: 80
Foxtail, Giant plant response rating [10, 12]: 90
Plant response rating, Foxtail, Giant [10, 13]: 90
Plant response rating, Foxtail, Giant [10, 14]: 100

Cc1nn(-c2ccc(F)cc2)nc1C(=O)c1ccnc(C(F)(F)F)c1 [Compound 167]
Corn plant response rating (corn (Zea mays); [15]): 30
Plant response rating, Corn (corn (Zea mays); [16]): 30
Morningglory plant response rating ([1]; Postemergence, 1000 g ai/ha): 100
Barnyardgrass plant response rating [2, 15]: 100
Plant response rating, Barnyardgrass [2, 16]: 100
Plant response rating, Barnyardgrass (0 to 100 scale, 0 is no effect, 100 is complete control) ([3]; 125 g ai/ha): 0
Plant response rating, Rice (0 to 100 scale, 0 is no effect, 100 is complete control) (rice (Oryza sativa); 125 g ai/ha): 30
Pigweed plant response rating ([4]; Postemergence, 1000 g ai/ha): 100
Plant response rating, Pigweed [4, 16]: 100
Wheat plant response rating ([5]; Postemergence, 1000 g ai/ha): 40
Plant response rating, Wheat [5, 16]: 80
Plant response rating, Sedge, Umbrella (0 to 100 scale, 0 is no effect, 100 is complete control) ([6]; 125 g ai/ha): 50
Velvetleaf plant response rating ([7]; Postemergence, 1000 g ai/ha): 50
Plant response rating, Velvetleaf [7, 16]: 20
Plant response rating, Ducksalad (0 to 100 scale, 0 is no effect, 100 is complete control) ([8]; 125 g ai/ha): 0
Crabgrass, Large plant response rating [9, 15]: 100
Plant response rating, Crabgrass, Large [9, 16]: 100
Foxtail, Giant plant response rating [10, 15]: 100
Plant response rating, Foxtail, Giant [10, 16]: 100
